Reference: PubChem BioAssay (NCI)
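Method: 48-hour compound exposure of cells in 96-well plates, five concentrations, linear interpolation of endpoints. At the TGI there is no net growth.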

Legend:
Experiment in all cases: NCI-60 cell line screen, 48 h
[1] = tested on: MDA-MB-435
[2] = tested on: UACC-62 melanoma
[3] = tested on: SF-295 CNS
[4] = tested on: A549 NSCLC
[5] = tested on: NCI-H226 lung
[6] = tested on: M14 melanoma
[7] = tested on: DU-145 prostate
[8] = tested on: COLO 205 colon
[9] = tested on: OVCAR-4 ovarian
[10] = tested on: HCT-116 colon
[11] = tested on: NCI-H23 lung
[12] = tested on: NCI-H460 lung
[13] = tested on: OVCAR-8 ovarian
[14] = tested on: ACHN renal
[15] = tested on: HT29 colon
[16] = tested on: SK-MEL-5 melanoma
[17] = tested on: MOLT-4 leukemia
[18] = tested on: OVCAR-3 ovarian
[19] = tested on: HCT-15 colon

Compound	TGI [1] [µM]	TGI [2] [µM]	TGI [3] [µM]	TGI [4] [µM]	TGI [5] [µM]	TGI [6] [µM]	TGI [7] [µM]	TGI [8] [µM]	TGI [9] [µM]	TGI [10] [µM]	TGI [11] [µM]	TGI [12] [µM]	TGI [13] [µM]	TGI [14] [µM]	TGI [15] [µM]	TGI [16] [µM]	TGI [17] [µM]	TGI [18] [µM]	TGI [19] [µM]
COCN1C(=O)[C@@H]2CCCN2C(=O)c2ccc([N+](=O)[O-])cc21	> 100	> 100	> 100	> 100	> 100	> 100	> 100	> 100	> 100	> 100	> 100	> 100	> 100	> 100	> 100	> 100	> 100	> 100	> 100
O=C(c1ccccc1)C1C[C@H]2CO[C@H](c3ccccc3)N2C1=O (stereo not given in full)	> 100	> 100	> 100	> 100	> 100	> 100	> 100	> 100	> 100	> 100	> 100	> 100	> 100	> 100	> 100	> 100	> 100	> 100	> 100
O=c1c(=[n+]2ccc(=C([O-])c3ccccc3)cc2)/c(=N/S(=O)(=O)c2ccccc2)c(=O)c2ccccc12	3.1	3.73	24.3	29.8	30.8	23.9	26.8	27.2	25.9	23.5	12	36.2	26.7	25.3	28	4.87	14.8	13.6	28.2
CCO/C=C(\C(=O)OC)S(=O)(=O)c1ccc(C)cc1	> 100	> 100	> 100	> 100	> 100	> 100	> 100	> 100	> 100	> 100	> 100	> 100	> 100	> 100	> 100	> 100	> 100	> 100	> 100
Cn1c(=O)c2c(nc3n(C)c(=O)c4ccccc4n23)n(C)c1=O	> 100	> 100	> 91.4	> 100	58.7	> 100	> 83.6	> 100	> 100	> 100	> 100	> 100	> 100	66.7	> 100	> 100	13.4	> 100	> 100
COC(=O)[C@H](COC(=O)/C=C/c1ccc(OC(C)=O)c(OC(C)=O)c1)NC(=O)/C=C/c1ccc(OC(C)=O)c(OC(C)=O)c1	45.5	31.9	–	> 100	56.7	54.3	29.4	37	38.9	36.2	47.6	53.9	67.4	42.2	54	31.6	> 100	33.5	70.6
COC(=O)c1ccccc1C1CN=NC12Cc1cc(C)cc(C)c1C2=O (stereo not given)	> 100	> 100	> 100	> 100	> 100	> 100	> 100	> 100	> 100	> 100	> 100	> 100	> 100	> 100	> 100	> 100	> 100	> 100	76.6
Cc1nnc2n1N=C(c1cc(F)c(Cl)cc1Cl)/C(=C/c1ccc3c(c1)OCO3)S2	> 100	> 100	> 100	> 100	> 100	> 100	> 100	> 100	> 100	> 100	> 100	> 100	> 100	> 100	> 100	> 100	> 100	> 100	> 100
O=c1[nH]c2cc([N+](=O)[O-])ccc2nc1/C=C(\O)c1ccc(Cl)cc1	45.2	30.3	27.4	22.6	40.6	28.4	23	78.5	41.1	11.8	29.4	24	21.5	31.4	32.7	51.2	46.2	38.6	28.4
c1cc(NC2=NCCO2)c2c(c1)OCO2	> 100	> 100	> 100	> 100	> 100	> 100	> 100	> 100	> 100	> 100	> 100	> 100	> 100	> 100	> 100	> 100	> 100	> 100	> 100
O=C(O)C1=NN(c2ccc(S(=O)(=O)O)cc2)C2(C1)SCC(=O)N2c1nc2ccccc2s1 (stereo not given)	> 100	> 100	> 100	> 100	> 100	> 100	> 100	> 100	> 100	> 100	> 100	> 100	> 100	> 100	> 100	> 100	> 100	> 100	> 100
C#CCCOC(=O)c1ccccc1OC(C)=O	> 100	> 100	> 100	–	> 100	> 100	> 100	> 100	> 100	> 100	> 100	> 100	> 100	> 100	–	> 100	> 100	> 100	> 100
